One series deals with TNF-α production. Kind of series: Inhibition of TNF-α production in galactosamine- and LPS-stimulation. The conditions noted are these: Mus musculus; C3H/HeN mice, oral, 1 hour before galactosamine/LPS i.v.; serum TNF-α by ELISA 1 hour later; read-out: Inhibition of TNF-α production ED50: mg/kg orally. It is filed as in vivo. The procedure: A suspension of each test compound in 0.5% CMC-Na solution was administered orally to C3H/HeN mice at a dose of 0.10 to 10 mg/kg. One hour later, the animals received intravenously galactosamine at a dose of 800 mg/kg and LPS at a dose 5 μg/kg to raise the induction of TNF-α production. One hour later after the galactosamine- and LPS-administration, amounts of TNF-α in serum samples were measured by ELISA, and ED50 was obtained. Roflumilast and SB207499 were used for the reference compounds in this assay.
A general note: An ELISA detects its analyte on a solid surface through an enzyme-linked reagent.

Another series has as its system rats. Kind of series: Toxicology study (2-weeks administration to rats). Format: in vivo. The conditions noted are these: oral, 1, 5, or 25 mg/5 ml/kg. How it is done:
Each compound of the present invention (Example Nos. 9 and 33) was administered orally to rats (6 animals per group) as a test compound. […] The test compound was suspended in 0.5% CMC-Na solution and given orally to the animal at a dose of 1, 5, or 25 mg/5 ml/kg in a forced manner.

The subject of the next series is ICR mice. As to the kind of experiment: Toxicology study (1-week administration to mice). Format: in vivo. The settings on record: oral, 100 or 300 mg/10 ml/kg, one week. How it is done:
The Compound of the present invention (Example No. 9) was administered orally to ICR mice (5 animals per group) as a test compound. […] The test compound was suspended in 0.5% CMC-Na solution and given orally to the animal at a dose of 100 or 300 mg/10 ml/kg in a forced manner.

Series [1] concerns lung eosinophil infiltration. As to the kind of experiment: Inhibition of lung eosinophil infiltration (OVA-sensitized, BALF). It is filed as in vivo, Hartley guinea-pigs. The settings on record: Cavia porcellus, guinea-pigs, oral, 1 hour before OVA inhalation, BALF eosinophils at 24 hours, read-out: Inhibition of Lung Eosinophil Infiltration ED50: mg/kg orally. How it is done: Hartley guinea-pigs were sensitized by inhaling twice 1% ovalbumin (OVA) in a physiological saline for 10 minutes with a nebulizer (Atom Medical Corporation, Japan) at an interval of 1 week. The animals were orally given a suspension of test compounds at a dose of 0.03 to 3 mg/2 mL/kg one week after the final sensitization. One hour later, the animals were exposed to antigens by inhalation of 2% OVA in a physiological saline for 5 minutes with a nebulizer. Thirty minutes before the antigen challenge, the animals were intraperitoneally pretreated with pyrilamine at a dose of 10 mg/kg to avoid fatality due to anaphylactic shock. Bronchoalveolar lavage fluid (BALF) samples were collected 24 hours after the exposure by inhalation of antigens, and eosinophils were counted.

Take `O=c1c2c(Cc3ccccc3)n[nH]c2c2cccnc2n1-c1ccccc1` [Example No. 9, 3-benzyl-5-phenyl-1H-pyrazolo[4,3-c][1,8]naphthyridin-4 (5H)-one]: the values for the ED50 (in the series on TNF-α production; in series [1]) were 0.22 mg/kg and under 0.03 mg/kg, respectively. The “Abnormality in other parameters” value with rats is “no clear abnormality was observed”; in the series with ICR mice, “no abnormality was observed”. For the same compound, the Body weight gain entry is “No significant reduction of body weight gains was observed” with rats and “No reduction of body weight gains was observed” in the series on ICR mice. Besides, the Mortality entry in the series with rats and with ICR mice was “None of the animals were died” each time.

Consider `O=c1c2c(Cc3ccc(F)cc3)n[nH]c2c2cccnc2n1-c1ccccc1` [Example No. 33, 3-(4-fluorobenzyl)-5-phenyl-1H-pyrazolo[4,3-c][1,8]naphthyridin-4 (5H)-one], for which the ED50 in the series on TNF-α production amounted to 0.1 mg/kg. Moreover, in the series with rats, the “Abnormality in other parameters” value was “no clear abnormality was observed”, the Body weight gain entry was “No significant reduction of body weight gains was observed” and the Mortality result is “None of the animals were died”. Moreover, the ED50 in series [1] worked out at 0.03 mg/kg.

(Values after patent US7608716B2, “Pyrazolonaphthyridine derivative” (Aska Pharmaceutical Co., Ltd., priority 2002, dated 2009).)
